Experimental data from ChEMBL document CHEMBL1132776, “(E) -6-(1-alkyloxyiminoalkyl)-5,8-dimethoxy-1,4-naphthoquinones: synthesis, cytotoxic activity and antitumor activity” (2000).
In brackets after ≈: the same amount, converted by molar mass.

What was measured:
A549 = experiment: The compound was evaluated for antiproliferative activity against A549 cell line; assay type: functional; settings: Homo sapiens, read-out: ED50 (the source's name)
L1210 = experiment: The compound was evaluated for antiproliferative activity against L1210 cell line; assay type: functional; settings: Mus musculus, read-out: ED50 (the source's name)
Mus musculus = species on record: Mus musculus; experiment: Survival ratio (SR) is the number of mice surviving after 80 days among 8 mice; assay type: functional
CCRF S-180 = experiment: Percent ratio of treated to control mice after intraperitoneal injection of 1x10E7 S180 cells for antitumor activity was determined; assay type: functional, Mus musculus

Structure (SMILES)	EC50 (A549) [µg/mL]	EC50 (L1210) [µg/mL]	Survival ratio (Mus musculus)	T/C (CCRF S-180) [%]
CCCCCCCCCO/N=C(\CCCCCC)c1cc(OC)c2c(c1OC)C(=O)C=CC2=O	> 10	1.15 (≈ 2.43 µM)	0	96
CCCCCCCCCO/N=C/c1cc(OC)c2c(c1OC)C(=O)C=CC2=O	> 10	0.19 (≈ 0.49 µM)	5	355
CCCCCCCCCCCCO/N=C(\CCCCCC)c1cc(OC)c2c(c1OC)C(=O)C=CC2=O	> 10	0.193 (≈ 0.376 µM)	2	231
CCCCCCCO/N=C/c1cc(OC)c2c(c1OC)C(=O)C=CC2=O	> 10	0.213 (≈ 0.593 µM)	5	355
CCCCCC/C(=N\OC)c1cc(OC)c2c(c1OC)C(=O)C=CC2=O	> 10	0.192 (≈ 0.534 µM)	5	323
CCCCCCCCCCCCO/N=C/c1cc(OC)c2c(c1OC)C(=O)C=CC2=O	> 10	0.311 (≈ 0.724 µM)	0	119
CO/N=C/c1cc(OC)c2c(c1OC)C(=O)C=CC2=O	> 10	0.109 (≈ 0.396 µM)	2	318
CCCCCC/C(=N\OCCC)c1cc(OC)c2c(c1OC)C(=O)C=CC2=O	> 10	0.166 (≈ 0.428 µM)	5	369
COc1cccc2c1C(=O)c1c(O)c3c(c(O)c1C2=O)C[C@@](O)(C(=O)CO)C[C@@H]3O[C@H]1C[C@H](N)[C@H](O)[C@H](C)O1 [DOXORUBICIN]	1.01 (≈ 1.86 µM)	0.016 (≈ 0.0294 µM)	3	315
COc1cc(/C=N/OCc2ccccc2)c(OC)c2c1C(=O)C=CC2=O	> 10	0.264 (≈ 0.751 µM)	4	331
CCCCCO/N=C/c1cc(OC)c2c(c1OC)C(=O)C=CC2=O	> 10	0.175 (≈ 0.528 µM)	5	388
CCCCCC/C(=N\OCCCCC)c1cc(OC)c2c(c1OC)C(=O)C=CC2=O	> 10	0.224 (≈ 0.539 µM)	5	363
CCCCCCCO/N=C(\CCCCCC)c1cc(OC)c2c(c1OC)C(=O)C=CC2=O	> 10	0.162 (≈ 0.365 µM)	5	375
CCCO/N=C/c1cc(OC)c2c(c1OC)C(=O)C=CC2=O	> 10	0.107 (≈ 0.353 µM)	2	229
